Measured values: PubChem BioAssay (NCI)
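Compound exposure: 48 hours, 5 concentrations, 96-well plates. TGI denotes the concentration required for complete inhibition of growth.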

Legend:
Assay in all cases: growth of human tumour cells (NCI), 48 h
COLO 205 colon = test system: COLO 205 colon
HOP-92 NSCLC = test system: HOP-92 NSCLC
OVCAR-4 ovarian = test system: OVCAR-4 ovarian
786-0 renal = test system: 786-0 renal
UACC-257 melanoma = test system: UACC-257 melanoma
NCI-H23 lung = test system: NCI-H23 lung
SF-539 CNS = test system: SF-539 CNS
HT29 colon = test system: HT29 colon
UO-31 renal = test system: UO-31 renal
HCC-2998 colon = test system: HCC-2998 colon

SMILES | TGI (COLO 205 colon) | TGI (HOP-92 NSCLC) | TGI (OVCAR-4 ovarian) | TGI (786-0 renal) | TGI (UACC-257 melanoma) | TGI (NCI-H23 lung) | TGI (SF-539 CNS) | TGI (HT29 colon) | TGI (UO-31 renal) | TGI (HCC-2998 colon)
C=C1CC(Cn2ccc(=O)[nH]c2=O)(c2ccc(Cl)cc2)OC1=O (stereo not given) | 3.44 µM | 3.89 µM | 3.61 µM | 4.83 µM | 12.4 µM | 12.8 µM | 30.4 µM | 13.4 µM | 33 µM | 31.2 µM
O=C1CC(c2ccccc2)=Nc2ccccc2N1 | > 100 µM | > 100 µM | > 100 µM | > 100 µM | > 100 µM | > 100 µM | > 100 µM | > 100 µM | > 100 µM | > 100 µM
C[C@@H]1C(=O)C[C@H]2C(C)(C)CCC[C@]2(C)[C@@]1(O)CCc1ccoc1 | > 100 µM | > 100 µM | > 100 µM | > 100 µM | > 100 µM | > 100 µM | > 100 µM | > 100 µM | > 100 µM | > 100 µM
Cn1ncc2c(Cl)ncnc21 | > 100 µM | > 100 µM | > 100 µM | > 100 µM | > 100 µM | > 100 µM | > 100 µM | > 100 µM | > 100 µM | > 100 µM
Clc1cccc(NN=Nc2ccc(-c3nc4ccccc4s3)cc2)c1 | > 100 µM | 76.8 µM | > 100 µM | 51.4 µM | > 100 µM | 63.3 µM | > 100 µM | > 100 µM | > 100 µM | > 100 µM
